Measurements as given in ChEMBL document CHEMBL3616371, “Synthesis of BF₃ catalyzed Mannich derivatives with excellent ee from phenylpropanolamine, study of their antimicrobial activity and molecular docking” (2015).

What was measured:
Bacillus subtilis [1] = assay: Antibacterial activity against Bacillus subtilis after 24 hrs by two fold serial dilution method; assay type: functional
Candida albicans [2] = assay: Antifungal activity against Candida albicans assessed as growth inhibition at 1 mg/well after 48 hrs by Well method; assay type: functional
Pseudomonas aeruginosa [3] = assay: Antibacterial activity against Pseudomonas aeruginosa after 24 hrs by two fold serial dilution method; assay type: functional
Staphylococcus aureus [4] = assay: Antibacterial activity against methicillin-resistant Staphylococcus aureus after 24 hrs by two fold serial dilution method; assay type: functional
Micrococcus luteus [5] = assay: Antibacterial activity against Micrococcus luteus after 24 hrs by two fold serial dilution method; assay type: functional
Staphylococcus aureus [6] = assay: Antibacterial activity against Staphylococcus aureus assessed as growth inhibition at 1 mg/well after 24 hrs by Well method; assay type: functional
Proteus vulgaris [7] = assay: Antibacterial activity against Proteus vulgaris after 24 hrs by two fold serial dilution method; assay type: functional
[8] = system: Staphylococcus epidermidis; assay: Antibacterial activity against Staphylococcus epidermidis after 24 hrs by two fold serial dilution method; assay type: functional
Malassezia pachydermatis [9] = assay: Antifungal activity against Malassezia pachydermatis after 48 to 72 hrs by two fold serial dilution method; assay type: functional
Staphylococcus aureus [10] = assay: Antibacterial activity against Staphylococcus aureus after 24 hrs by two fold serial dilution method; assay type: functional
Staphylococcus aureus [11] = assay: Antibacterial activity against methicillin-resistant Staphylococcus aureus assessed as growth inhibition at 1 mg/well after 24 hrs by Well method; assay type: functional
Shigella flexneri [12] = assay: Antibacterial activity against Shigella flexneri assessed as growth inhibition at 1 mg/well after 24 hrs by Well method; assay type: functional
Salmonella typhimurium [13] = assay: Antibacterial activity against Salmonella typhimurium assessed as growth inhibition at 1 mg/well after 24 hrs by Well method; assay type: functional, Salmonella enterica subsp. enterica serovar Typhimurium
Klebsiella aerogenes [14] = assay: Antibacterial activity against Enterobacter aerogenes assessed as growth inhibition at 1 mg/well after 24 hrs by Well method; assay type: functional
Candida albicans [15] = assay: Antifungal activity against Candida albicans after 48 to 72 hrs by two fold serial dilution method; assay type: functional
[16] = system: Staphylococcus epidermidis; assay: Antibacterial activity against Staphylococcus epidermidis assessed as growth inhibition at 1 mg/well after 24 hrs by Well method; assay type: functional
Pseudomonas aeruginosa [17] = assay: Antibacterial activity against Pseudomonas aeruginosa assessed as growth inhibition at 1 mg/well after 24 hrs by Well method; assay type: functional
Shigella flexneri [18] = assay: Antibacterial activity against Shigella flexneri after 24 hrs by two fold serial dilution method; assay type: functional
Klebsiella pneumoniae [19] = assay: Antibacterial activity against Klebsiella pneumoniae assessed as growth inhibition at 1 mg/well after 24 hrs by Well method; assay type: functional
Proteus vulgaris [20] = assay: Antibacterial activity against Proteus vulgaris assessed as growth inhibition at 1 mg/well after 24 hrs by Well method; assay type: functional
Malassezia pachydermatis [21] = assay: Antifungal activity against Malassezia pachydermatis assessed as growth inhibition at 1 mg/well after 48 hrs by Well method; assay type: functional
Klebsiella aerogenes [22] = assay: Antibacterial activity against Enterobacter aerogenes after 24 hrs by two fold serial dilution method; assay type: functional
Salmonella typhimurium [23] = assay: Antibacterial activity against Salmonella typhimurium after 24 hrs by two fold serial dilution method; assay type: functional, Salmonella enterica subsp. enterica serovar Typhimurium; conditions: Salmonella enterica
Bacillus subtilis [24] = assay: Antibacterial activity against Bacillus subtilis assessed as growth inhibition at 1 mg/well after 24 hrs by Well method; assay type: functional
Klebsiella pneumoniae [25] = assay: Antibacterial activity against Klebsiella pneumoniae after 24 hrs by two fold serial dilution method; assay type: functional
Micrococcus luteus [26] = assay: Antibacterial activity against Micrococcus luteus assessed as growth inhibition at 1 mg/well after 24 hrs by Well method; assay type: functional
Aspergillus flavus [27] = assay: Antifungal activity against Aspergillus flavus after 48 to 72 hrs by two fold serial dilution method; assay type: functional
Aspergillus flavus [28] = assay: Antifungal activity against Aspergillus flavus assessed as growth inhibition at 1 mg/well after 48 hrs by Well method; assay type: functional

SMILES	MIC (Bacillus subtilis [1]) [µg/mL]	MIC (Pseudomonas aeruginosa [3]) [µg/mL]	MIC (Staphylococcus aureus [4]) [µg/mL]	MIC (Micrococcus luteus [5]) [µg/mL]	inhibition zone (IZ) (Staphylococcus aureus [6]) [mm]	MIC (Proteus vulgaris [7]) [µg/mL]	MIC [8] [µg/mL]	MIC (Staphylococcus aureus [10]) [µg/mL]	inhibition zone (IZ) (Staphylococcus aureus [11]) [mm]	inhibition zone (IZ) (Shigella flexneri [12]) [mm]	inhibition zone (IZ) (Salmonella typhimurium [13]) [mm]	inhibition zone (IZ) (Klebsiella aerogenes [14]) [mm]	inhibition zone (IZ) [16] [mm]	inhibition zone (IZ) (Pseudomonas aeruginosa [17]) [mm]	MIC (Shigella flexneri [18]) [µg/mL]	inhibition zone (IZ) (Proteus vulgaris [20]) [mm]	MIC (Klebsiella aerogenes [22]) [µg/mL]	MIC (Salmonella typhimurium [23]) [µg/mL]	inhibition zone (IZ) (Bacillus subtilis [24]) [mm]	inhibition zone (IZ) (Micrococcus luteus [26]) [mm]	also measured
C[C@H](NCCC(=O)c1ccccc1)[C@H](O)c1ccccc1.Cl	25	25	12.5	6.25	27	12.5	3.13	12.5	27	20	26	28	34	20	50	25	6.25	12.5	18	30	inhibition zone (IZ) (Candida albicans [2]): 16 mm; MIC (Malassezia pachydermatis [9]): > 50 µg/mL; MIC (Candida albicans [15]): 50 µg/mL; inhibition zone (IZ) (Klebsiella pneumoniae [19]): 21 mm; inhibition zone (IZ) (Malassezia pachydermatis [21]): 12 mm; MIC (Klebsiella pneumoniae [25]): 25 µg/mL
C[C@H](NCCC(=O)c1ccc(Cl)cc1Cl)[C@H](O)c1ccccc1.Cl	25	25	25	25	36	25	25	25	31	31	30	34	35	29	25	32	25	25	30	35	inhibition zone (IZ) (Candida albicans [2]): 22 mm; MIC (Aspergillus flavus [27]): 25 µg/mL; MIC (Klebsiella pneumoniae [25]): > 50 µg/mL
Cc1ccc(C(=O)CCN[C@H](C)[C@@H](O)c2ccccc2)cc1.Cl	12.5	12.5	6.25	25	24	6.25	3.13	25	28	20	25	27	31	23	50	28	12.5	12.5	22	22	MIC (Aspergillus flavus [27]): 50 µg/mL; inhibition zone (IZ) (Klebsiella pneumoniae [19]): 15 mm; inhibition zone (IZ) (Aspergillus flavus [28]): 20 mm; MIC (Klebsiella pneumoniae [25]): 50 µg/mL
C[C@@H](NCCC(=O)c1ccccc1)[C@@H](O)c1ccccc1.Cl	25	12.5	6.25	12.5	22	25	12.5	25	28	22	22	20	26	22	25	24	50	25	20	28	inhibition zone (IZ) (Candida albicans [2]): 15 mm; MIC (Malassezia pachydermatis [9]): 50 µg/mL; MIC (Candida albicans [15]): 50 µg/mL; inhibition zone (IZ) (Klebsiella pneumoniae [19]): 19 mm; inhibition zone (IZ) (Malassezia pachydermatis [21]): 14 mm; MIC (Klebsiella pneumoniae [25]): 50 µg/mL
C[C@@H](NCCC(=O)c1ccc(Cl)cc1)[C@@H](O)c1ccccc1.Cl	12.5	12.5	3.13	6.25	36	3.13	3.13	3.13	33	30	30	34	36	23	6.25	32	3.13	6.25	24	29	inhibition zone (IZ) (Candida albicans [2]): 24 mm; MIC (Malassezia pachydermatis [9]): 50 µg/mL; MIC (Candida albicans [15]): 12.5 µg/mL; inhibition zone (IZ) (Klebsiella pneumoniae [19]): 18 mm; inhibition zone (IZ) (Malassezia pachydermatis [21]): 15 mm; MIC (Klebsiella pneumoniae [25]): 50 µg/mL
C[C@@H](NCCC(=O)c1cccc([N+](=O)[O-])c1)[C@@H](O)c1ccccc1.Cl	25	50	50	50	14	50	50	50	16	19	18	17	18	17	50	20	50	50	18	18	inhibition zone (IZ) (Candida albicans [2]): 15 mm; MIC (Malassezia pachydermatis [9]): 25 µg/mL; MIC (Candida albicans [15]): 50 µg/mL; inhibition zone (IZ) (Malassezia pachydermatis [21]): 21 mm
C[C@@H](NCCC(=O)c1cccc(O)c1)[C@@H](O)c1ccccc1.Cl	25	25	25	3.13	20	25	25	50	22	21	20	21	24	20	25	22	25	50	20	34	MIC (Malassezia pachydermatis [9]): > 50 µg/mL; inhibition zone (IZ) (Klebsiella pneumoniae [19]): 20 mm; inhibition zone (IZ) (Malassezia pachydermatis [21]): 14 mm; MIC (Klebsiella pneumoniae [25]): 50 µg/mL
C[C@H](NCCC(=O)c1cccc(O)c1)[C@H](O)c1ccccc1.Cl	12.5	12.5	25	3.13	24	25	6.25	25	23	22	22	22	28	22	25	24	25	25	23	35	inhibition zone (IZ) (Klebsiella pneumoniae [19]): 24 mm; MIC (Klebsiella pneumoniae [25]): 25 µg/mL
Cc1ccc(C(=O)CCN[C@@H](C)[C@H](O)c2ccccc2)cc1.Cl	6.25	3.13	3.13	3.13	22	3.13	3.13	3.13	23	22	23	24	24	20	3.13	24	3.13	3.13	18	22	MIC (Aspergillus flavus [27]): 50 µg/mL; inhibition zone (IZ) (Klebsiella pneumoniae [19]): 13 mm; inhibition zone (IZ) (Aspergillus flavus [28]): 22 mm
